The target in assay [1] is T1, FLT3(ITD) (Homo sapiens, UniProt P36888).
T1 sequence (P36888 1-993): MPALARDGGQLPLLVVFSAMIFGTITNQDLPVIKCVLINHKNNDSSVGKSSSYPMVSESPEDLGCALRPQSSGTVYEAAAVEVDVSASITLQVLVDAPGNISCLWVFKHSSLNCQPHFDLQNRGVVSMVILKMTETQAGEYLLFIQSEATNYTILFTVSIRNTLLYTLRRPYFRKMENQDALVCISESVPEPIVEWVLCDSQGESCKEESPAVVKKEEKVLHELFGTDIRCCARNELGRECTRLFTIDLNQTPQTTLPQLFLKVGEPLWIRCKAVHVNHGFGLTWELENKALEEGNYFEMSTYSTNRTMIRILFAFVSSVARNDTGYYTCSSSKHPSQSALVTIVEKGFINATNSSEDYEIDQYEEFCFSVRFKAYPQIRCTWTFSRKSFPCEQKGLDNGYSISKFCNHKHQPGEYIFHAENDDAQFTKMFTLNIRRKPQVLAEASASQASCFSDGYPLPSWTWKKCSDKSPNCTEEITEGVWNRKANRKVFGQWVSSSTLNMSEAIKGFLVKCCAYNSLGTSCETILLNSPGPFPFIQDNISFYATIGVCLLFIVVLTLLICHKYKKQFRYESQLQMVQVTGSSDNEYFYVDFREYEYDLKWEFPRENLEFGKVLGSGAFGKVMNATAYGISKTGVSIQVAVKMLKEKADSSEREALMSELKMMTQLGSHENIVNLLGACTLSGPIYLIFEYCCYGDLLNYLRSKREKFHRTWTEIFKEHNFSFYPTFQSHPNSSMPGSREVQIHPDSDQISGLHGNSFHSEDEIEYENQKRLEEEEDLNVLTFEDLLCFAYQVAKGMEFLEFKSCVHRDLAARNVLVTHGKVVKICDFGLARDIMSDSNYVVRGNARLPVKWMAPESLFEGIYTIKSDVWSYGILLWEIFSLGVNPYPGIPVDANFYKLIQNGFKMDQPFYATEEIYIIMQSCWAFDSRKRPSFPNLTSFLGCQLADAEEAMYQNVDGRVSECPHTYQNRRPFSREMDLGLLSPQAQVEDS
Nature of the assay: ADP Glo kinase assay, FLT3(ITD). The class given is biochemical. The note with it: apparent Ki calculated from Km (ATP) and IC50, read-out: FLT3 inhibition Ki.
Method: Inhibition of FLT3(WT), FLT3(ITD) and FLT3(D835Y) and CDKs were determined using ADP Glo Kinase assays (Promega Corporation, Madison, WI, USA). […] The kinase reactions are run for an optimised time period (FLT3-WT: 120 min, FLT3-ITD: 80 min, FLT3-D835Y: 100 min) at room temperature and then the reaction was stopped by adding 5 μL of ADP Glo reagent. […] Positive and negative controls were performed in 0.5% DMSO in the presence and absence of each FLT3 kinase, respectively. […] Half-maximal inhibition (IC50) values were calculated using a 4-parameter logistic non-linear regression model with Graphpad prism (Version 6.0). Apparent inhibition constants (Ki) values were calculated from Km (ATP) and IC50 values for the respective kinases.

Assay [2] concerns MV-4-11. Nature of the assay: Proliferation assay (resazurin/MTT), MV-4-11. It counts as cell-based. The note with it: Homo sapiens, MV4-11, read-out: 72 h Growth inhibition GI50, MV-4-11 cells.
For assay [3], the system named is U937. Nature of the assay: Proliferation assay (resazurin/MTT), U937. The class given is cell-based. The note with it: Homo sapiens, U-937, read-out: 72 h Growth inhibition GI50, U937 cells.
The target in assay [4] is CDK9/CyclinT1 (Homo sapiens, UniProt P50750). Nature of the assay: ADP Glo kinase assay, CDK9/CyclinT1. The note with it: CDK9T1; apparent Ki calculated from Km (ATP) and IC50; read-out: CDK inhibition Ki. It counts as biochemical.
Assay [5] deals with CDK2E1 (Homo sapiens, UniProt P24941). The note with it: 1 µM.

Structures are written as SMILES.

Sequence of CDK9/CyclinT1 (P50750 whole entry, species assumed): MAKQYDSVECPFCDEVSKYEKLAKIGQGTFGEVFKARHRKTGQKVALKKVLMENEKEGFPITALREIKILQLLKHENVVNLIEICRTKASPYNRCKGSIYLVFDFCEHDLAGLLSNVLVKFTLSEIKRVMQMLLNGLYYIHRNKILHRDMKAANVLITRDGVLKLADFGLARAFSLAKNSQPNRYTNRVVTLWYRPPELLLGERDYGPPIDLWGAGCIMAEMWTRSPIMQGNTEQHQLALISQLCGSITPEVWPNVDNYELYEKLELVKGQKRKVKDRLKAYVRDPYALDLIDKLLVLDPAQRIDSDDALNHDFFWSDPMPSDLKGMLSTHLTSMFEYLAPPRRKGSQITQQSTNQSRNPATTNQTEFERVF
Sequence of CDK9/CyclinT1 (O60563 whole entry partner, species assumed): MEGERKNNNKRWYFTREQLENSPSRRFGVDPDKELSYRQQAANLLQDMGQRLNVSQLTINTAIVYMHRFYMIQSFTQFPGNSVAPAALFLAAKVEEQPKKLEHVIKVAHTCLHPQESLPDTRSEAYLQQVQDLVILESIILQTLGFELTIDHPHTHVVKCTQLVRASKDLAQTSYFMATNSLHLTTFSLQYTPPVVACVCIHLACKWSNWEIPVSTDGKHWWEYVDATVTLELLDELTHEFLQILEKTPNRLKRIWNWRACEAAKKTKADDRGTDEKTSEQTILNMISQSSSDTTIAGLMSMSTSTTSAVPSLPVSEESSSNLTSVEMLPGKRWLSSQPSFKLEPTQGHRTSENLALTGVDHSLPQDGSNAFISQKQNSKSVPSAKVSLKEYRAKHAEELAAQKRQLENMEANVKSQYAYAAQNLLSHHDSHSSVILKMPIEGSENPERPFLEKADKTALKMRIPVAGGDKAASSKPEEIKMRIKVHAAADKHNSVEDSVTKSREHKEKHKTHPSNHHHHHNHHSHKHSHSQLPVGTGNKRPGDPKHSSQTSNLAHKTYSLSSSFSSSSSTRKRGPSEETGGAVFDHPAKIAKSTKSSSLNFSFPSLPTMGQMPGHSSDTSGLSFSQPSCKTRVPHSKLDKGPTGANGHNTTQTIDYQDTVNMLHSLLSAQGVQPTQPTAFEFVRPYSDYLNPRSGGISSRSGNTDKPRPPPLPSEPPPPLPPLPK

What is called GI50 is the concentration that inhibits growth by half. Take `CCN1CCN(Cc2ccc(Nc3ncc(F)c(-c4cnc5ccc(-c6ccccc6)cn45)n3)nc2)CC1` [Cmpd 68, N-(5-((4-Ethylpiperazin-1-yl)methyl)pyridin-2-yl)-5-fluoro-4-(6-phenylimidazo[1,2-a]pyridin-3-yl)pyrimidin-2-amine]: in assay [1], the Ki is 0.07 µM. For the same molecule, the GI50 in assay [2] amounted to 0.117 µM; in assay [3] it was 0.6 µM.
As to `CN1CCN(c2ccc(Nc3nccc(-c4cnc5ccc(-c6cnn(C)c6)cn45)n3)nc2)CC1` [Cmpd 62, 4-(6-(1-Methyl-1H-pyrazol-4-yl)imidazo[1,2-a]pyridin-3-yl)-N-(5-(4-methylpiperazin-1-yl)pyridin-2-yl)pyrimidin-2-amine], the Ki in assay [1] is 0.029 µM. Moreover, the figures for the GI50 in assay [2] and in assay [3] were 0.006 µM and 0.773 µM, respectively.
As to `CC(=O)N1CCN(c2ccc(Nc3nccc(-c4cnc5ccc(-c6cnn(C7CCN(C(=O)OC(C)(C)C)CC7)c6)cn45)n3)nc2)CC1` [Cmpd 60, Tert-butyl 4-(4-(3-(2-((5-(4-acetylpiperazin-1-yl)pyridin-2-yl)amino)pyrimidin-4-yl)imidazo[1,2-a]pyridin-6-yl)-1H-pyrazol-1-yl)piperidine-1-carboxylate], the Ki in assay [1] is 0.084 µM. Moreover, the GI50 amounted to 0.019 µM in assay [2] and 0.243 µM in assay [3].
With `CCC(=O)N1CCN(c2ccc(Nc3nccc(-c4cnc5ccccn45)n3)nc2)CC1` [Cmpd 56, 1-(4-(6-((4-(Imidazo[1,2-a]pyridin-3-yl)pyrimidin-2-yl)amino)pyridin-3-yl)piperazin-1-yl)propan-1-one], the Ki in assay [1] is 0.016 µM. Further, the GI50 is 0.022 µM in assay [2] and 0.339 µM in assay [3].
Turning to `CN1CCN(c2ccc(Nc3nccc(-c4cnc5ccc(-c6cncnc6)cn45)n3)nc2)CC1` [Cmpd 66, N-(5-(4-Methylpiperazin-1-yl)pyridin-2-yl)-4-(6-(pyrimidin-5-yl)imidazo[1,2-a]pyridin-3-yl)pyrimidin-2-amine], the values for the Ki in assay [4] and in assay [1] were 0.345 µM and 0.116 µM, respectively. For the same molecule, the GI50 in assay [2] was found to be 0.174 µM; in assay [3] it was 1.09 µM. Further, the activity in assay [5] was determined as 80%.
Consider `CN1CCN(c2ccc(Nc3nccc(-c4cnc5ccc(-c6cccnc6)cn45)n3)nc2)CC1` [Cmpd 65, N-(5-(4-Methylpiperazin-1-yl)pyridin-2-yl)-4-(6-(pyridin-3-yl)imidazo[1,2-a]pyridin-3-yl)pyrimidin-2-amine], for which the Ki in assay [1] is 0.03 µM. Besides, the GI50 turned out to be 0.032 µM in assay [2] and 0.382 µM in assay [3].
As for `CC(=O)N1CCN(c2ccc(Nc3nccc(-c4cnc5ccc(-c6cnn(C(F)F)c6)cn45)n3)nc2)CC1` [Cmpd 59], the Ki in assay [1] was 0.018 µM. Also, the GI50 in assay [2] stood at 0.008 µM; in assay [3], 0.462 µM.
Take `CC(=O)N1CCN(c2ccc(Nc3nccc(-c4cnc5ccc(-c6ccn(C)n6)cn45)n3)nc2)CC1` [Cmpd 58, 1-(4-(6-((4-(6-(1-Methyl-1H-pyrazol-3-yl)imidazo[1,2-a]pyridin-3-yl)pyrimidin-2-yl)amino)pyridin-3-yl)piperazin-1-yl)ethan-1-one]: the Ki in assay [1] was 0.049 µM. The GI50 in assay [2] was 0.009 µM; in assay [3], 0.206 µM.
For the molecule `Cc1ccc(Nc2nccc(-c3cnc4ccccn34)n2)nc1` [Cmpd 55, 4-(Imidazo[1,2-a]pyridin-3-yl)-N-(5-methylpyridin-2-yl)pyrimidin-2-amine], the Ki in assay [1] was 0.044 µM. Also, the GI50 stood at 0.049 µM in assay [2] and 0.471 µM in assay [3].
For `CC(=O)N1CCN(c2ccc(Nc3nccc(-c4cnc5ccc(-c6ccc(C)o6)cn45)n3)nc2)CC1` [Cmpd 61, 1-(4-(6-((4-(6-(5-Methylfuran-2-yl)imidazo[1,2-a]pyridin-3-yl)pyrimidin-2-yl)amino)pyridin-3-yl)piperazin-1-yl)ethan-1-one], the Ki in assay [1] was 0.004 µM. Besides, the GI50 in assay [2] is less than 0.0001 µM; in assay [3], 0.199 µM.
In the case of `CC(=O)N1CCN(c2ccc(Nc3nccc(-c4cnc5ccc(-c6cc[nH]n6)cn45)n3)nc2)CC1` [Cmpd 57, 1-(4-(6-((4-(6-(1H-Pyrazol-3-yl)imidazo[1,2-a]pyridin-3-yl)pyrimidin-2-yl)amino)pyridin-3-yl)piperazin-1-yl)ethan-1-one], the Ki in assay [1] is 0.006 µM. Besides, the GI50 in assay [2] turned out to be 0.004 µM; in assay [3] it was 0.728 µM.
For `CC(C)(C)OC(=O)N1CC=C(c2ccc(Nc3nccc(-c4cnc5ccccn45)n3)nc2)CC1` [Cmpd 64, Tert-butyl 6-((4-(imidazo[1,2-a]pyridin-3-yl)pyrimidin-2-vi)amino)-3′,6′-dihydro-[3,4′-bipyridine]-1′(2′H)-carboxylate], in assay [1], the Ki was 0.308 µM. Besides, the results for the GI50 in assay [2] and in assay [3] were 0.152 µM and 0.367 µM, respectively.
In the case of `CC(=O)N1CCN(c2ccc(Nc3nccc(-c4cnc5ccc(C6=CCN(C(=O)OC(C)(C)C)CC6)cn45)n3)nc2)CC1` [Cmpd 63, Tert-butyl 4-(3-(2-((5-(4-acetylpiperazin-1-yl)pyridin-2-yl)amino)pyrimidin-4-yl)imidazo[1,2-a]pyridin-6-yl)-3,6-dihydropyridine-1(2H)-carboxylate], in assay [1], the Ki was 0.132 µM. Besides, the results for the GI50 in assay [2] and in assay [3] were 0.035 µM and 0.436 µM, respectively.
Consider `CN(C)C1CCN(c2ccc(Nc3ncc(F)c(-c4cnc5ccc(-c6ccccc6)cn45)n3)nc2)CC1` [Cmpd 69, N-(5-(4-(Dimethylamino)piperidin-1-yl)pyridin-2-yl)-5-fluoro-4-(6-phenylimidazo[1,2-a]pyridin-3-yl)pyrimidin-2-amine], for which the Ki in assay [1] was 0.016 µM. Moreover, the 50% growth inhibitory concentration (GI50) in assay [2] was determined as 0.018 µM; in assay [3] it was 0.946 µM.

These data come from US12398132B2, “Derivatives of 4-(imidazo[1,2-a]pyridin-3-yl)-n-(pyridinyl)pyrimidin-2-amine as therapeutic agents” (AUCENTRA THERAPEUTICS PTY LTD, priority 2019, dated 2025).
